Consider four molecules from ChEMBL document CHEMBL1145675, “Antibacterial activity studies of flavonoids from Salvia palaestina” (1983).

What all share (type): functional
For experiment [1], the system named is Klebsiella pneumoniae. As to the kind of experiment: Antimicrobial activity against Klebsiella pneumoniae UC57 by tube dilution method.
The subject of experiment [2] is Staphylococcus aureus. Kind of experiment: Antimicrobial activity against Staphylococcus aureus ATCC 6538 by tube dilution method.
The test system of experiment [3] is Staphylococcus epidermidis. Kind of experiment: Antimicrobial activity against Staphylococcus epidermidis ATCC 12228 by tube dilution method.
Experiment [4] relates to Escherichia coli. Kind of experiment: Antimicrobial activity against Escherichia coli ATCC 8739 by tube dilution method.
Experiment [5] deals with Proteus vulgaris. As to the kind of experiment: Antimicrobial activity against Proteus vulgaris ATCC 8427 by tube dilution method.
Experiment [6] deals with Pseudomonas aeruginosa. Kind of experiment: Antimicrobial activity against Pseudomonas aeruginosa ATCC 1539 by tube dilution method.
The test system of experiment [7] is Proteus vulgaris. As to the kind of experiment: Antimicrobial activity against Proteus vulgaris ATCC 8427 by disc-diffusion method.
Experiment [8] relates to Escherichia coli. Kind of experiment: Antimicrobial activity against Escherichia coli ATCC 8739 by disc-diffusion method. (In general: A growth-free zone around the sample is the usual read-out of agar diffusion tests.)
Experiment [9] concerns Klebsiella pneumoniae. Kind of experiment: Antimicrobial activity against Klebsiella pneumoniae UC57 by disc-diffusion method.
Experiment [10] relates to Staphylococcus aureus. As to the kind of experiment: Antimicrobial activity against Staphylococcus aureus ATCC 6538 by disc-diffusion method.
Experiment [11] relates to Staphylococcus epidermidis. As to the kind of experiment: Antimicrobial activity against Staphylococcus epidermidis ATCC 12228 by disc-diffusion method.
Experiment [12] relates to Pseudomonas aeruginosa. As to the kind of experiment: Antimicrobial activity against Pseudomonas aeruginosa ATCC 1539 by disc-diffusion method.

Structures are written as SMILES. Values after ≈ are worked out from the molar mass of the structure shown. Some results are limits rather than exact numbers.

As to `COc1cc2oc(-c3ccc(O)cc3)cc(=O)c2c(O)c1OC` [CIRSIMARITIN], the minimal bactericidal concentration (MBC) in experiment [1] was determined as 90 µg/mL (≈ 286 µM); in experiment [2], 125 µg/mL (≈ 398 µM); in experiment [3], 125 µg/mL (≈ 398 µM); in experiment [4] it was 90 µg/mL (≈ 286 µM); in experiment [5], 125 µg/mL (≈ 398 µM); in [6], 125 µg/mL (≈ 398 µM). The MIC in [1] was found to be 45 µg/mL (≈ 143 µM); in experiment [2] it was 31.2 µg/mL (≈ 99.4 µM); in experiment [3], 62.5 µg/mL (≈ 199 µM); in experiment [4] it was 45 µg/mL (≈ 143 µM); in experiment [5] it was 31.2 µg/mL (≈ 99.4 µM); in experiment [6] it was 31.2 µg/mL (≈ 99.4 µM).
For `COc1ccc(-c2cc(=O)c3cc(OC)c(OC)cc3o2)cc1OC`, the “inhibition zone (IZ)” value in [7], in experiment [8], in experiment [9], in experiment [10] and in experiment [11] was less than 7 mm in each case. The minimal bactericidal concentration (MBC) in [6] came to 250 µg/mL (≈ 730 µM). Further, the MIC in experiment [6] worked out at 125 µg/mL (≈ 365 µM).
As for `O=c1cc(-c2ccc(O)c(O)c2)oc2cc(O)cc(O)c12` [LUTEOLIN], the MBC in [1], in experiment [4] and in [6] was 500 µg/mL (≈ 1750 µM) each time. The MIC in experiment [1], in experiment [4] and in experiment [6] was 125 µg/mL (≈ 437 µM) in each case. For the same molecule, the “inhibition zone (IZ)” value in experiment [7], in experiment [10] and in experiment [11] was less than 7 mm in each case.
With `O=c1cc(-c2ccc(O)c(O)c2)oc2cc(O[C@@H]3O[C@H](CO)[C@@H](O)[C@H](O)[C@H]3O)cc(O)c12` [GALUTEOLIN], the “inhibition zone (IZ)” value in experiment [7], in [9], in experiment [12], in experiment [10] and in experiment [11] was less than 7 mm throughout. In [4], this molecule displayed an MBC of 500 µg/mL (≈ 1120 µM). For the same molecule, the MIC in [4] amounted to 250 µg/mL (≈ 558 µM).

One may read the MBC as the smallest concentration meeting the test's criterion for killing. High values mean weaker bactericidal potency, low ones greater bactericidal potency. By MIC is commonly meant the lowest concentration found to suppress growth. Higher therefore signals a need for much substance.
